Results from patent publication US11464726B2, “1,4: 3,6 dianhydrohexitols for moisturising the skin” (ROQUETTE FRERES, priority 2017, dated 2022).

Tested on: surface layers of the skin (superficial stratum corneum)
Assay: Moisturizing efficiency of gel evaluated by corneometry
Format: in vivo, human
Details: for mean hydration value (Corneometer capacitance): gel 6% by weight + 1% carbomer, around 2 mg/cm^2, inner forearm, ten volunteers; for Mean variations in % of hydration: (T…h-T0)/T0*100, gel 6% by weight
Experimental: For this, these polyols were incorporated into a cosmetic preparation for topical use in gel form. […] The placebo consists only of 1% by weight of gelling carbomer in water. The moisturizing efficiency of each of the preparations for topical use was evaluated by corneometry. Corneometry is a scientifically recognized method for measuring the hydration of the surface layers of the skin. It is based on the determination of the capacitance of the superficial stratum corneum. The study was carried out with ten healthy volunteers aged from 18 to 65 years old. The moisturizing efficiency of each of the five formulae was evaluated 1 hour, 2 hours and 4 hours after its application in the laboratory on the inner face of the forearm. […] For each formula, an amount of around 2 mg/cm^2 was applied to an area of 3×3 cm, in non-occlusive epicutaneous mode. In addition to the zones treated with the five formulae, two additional zones were evaluated: one treated with a placebo and the other without treatment for the duration of the study. The measurements were carried out with a Corneometer® CM285 included in a Multiprobe Adapter System MPA® (Courage-Khazaka GmbH, Germany). The instrument determines the capacitance of the epidermis, which is proportional to the water content thereof, at a depth of around 15 μm. This method is based on the difference between the electrical permittivity of the water which is 81 and that of other substances (<7). The probe of the Corneometer (surface area of 49 mm^2) is positioned perpendicular to the test area which was delimited beforehand with a pencil. The measurement of the capacitance lasts 1 second. Each measurement is carried out twice and the average of the two measurements is noted. The instrument gives the values in arbitrary units ranging from 0 to 130, with an error margin of ±3%. Each volunteer rested for around 1 minute in an air-conditioned room before each measurement with the Corneometer® in order to avoid abnormal results due to excessive perspiration or stress. Table 2 below reports the mean hydration values expressed in arbitrary units (AU).

Row | Compound | mean hydration value (Corneometer capacitance) (T0, before application) [AU] | mean hydration value (Corneometer capacitance) (T1 h after application) [AU] | Mean variations in % of hydration (T1 h vs T0) [%] | mean hydration value (Corneometer capacitance) (T2 h after application) [AU] | Mean variations in % of hydration (T2 h vs T0) [%] | mean hydration value (Corneometer capacitance) (T4 h after application) [AU] | Mean variations in % of hydration (T4 h vs T0) [%] | moisturizing power given to the gel (in words, short-term hydration and maintenance over time (T4h vs T0))
1 | C[N+](C)(C)CC(=O)O [Betaine] | 43.39 | 55.61 | 28.2 | 54.30 | 25.1 | 50.74 | 16.9 | 
2 | OCC(O)CO [Glycerol] | 42.03 | 57.05 | 35.7 | 56.15 | 33.6 | 56.57 | 34.6 | 
3 | O[C@@H]1CO[C@H]2[C@@H]1OC[C@@H]2O [Isosorbide, 1,4:3,6-dianhydrosorbitol] | 46.54 | 56.60 | 21.6 | 52.88 | 13.6 | 52.50 | 12.8 | satisfactory moisturizing power, comparable to that of betaine
4 | OC[C@@H](O)[C@@H](O)[C@H](O)[C@@H](O)CO [Sorbitol] | 48.60 | 54.16 | 11.4 | 49.11 | 1.0 | 46.91 | −3.5 | 
5 | OC[C@@H](O)[C@H](O)[C@@H](O)CO [Xylitol] | 45.94 | 55.37 | 20.5 | 52.68 | 14.7 | 45.28 | −1.4 | 
